Source: ChEMBL document CHEMBL3886430, “Heterocyclic derivative and pharmaceutical drug” (2015)

Target: T1, Prostaglandin E synthase (Homo sapiens, UniProt O14684)
T1 sequence (O14684 whole entry): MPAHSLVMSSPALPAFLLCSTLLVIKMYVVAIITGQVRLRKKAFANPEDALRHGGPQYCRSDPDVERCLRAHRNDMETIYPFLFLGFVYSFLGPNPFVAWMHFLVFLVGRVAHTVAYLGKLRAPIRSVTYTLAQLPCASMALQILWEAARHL
Test: Inhibition Assay: mPGES-1 microsome fractions were prepared from CHO-K1 cells transiently transfected with plasmid encoding the human mPGES-1cDNA. Microsomes were diluted with potassium phosphate buffer containing reduced glutathione (pH7.4), and DMSO containing test compound or DMSO alone was added (such that DMSO final concentration would be 1% in each) and incubated at 4° C. for 20 minutes. Then, the enzymatic reactions were initiated by the addition of PGH2 substrate (final concentration 1 μM) and incubated at 4° C. for 60 seconds. The reaction was terminated by the addition of a citrate solution (final citrate concentration 50 mM) containing ferric chloride (final concentration 1 mg/mL). PGE2 production in the enzyme reaction aliquot was measured using HTRF kit (Cisbio International, catalogue #62P2APEC).
Format: cell-based

SMILES: O=C(Nc1cc(C(=O)NCc2ccccc2C(F)(F)F)c2nc[nH]c2c1)c1ccccc1C(F)(F)F
- IC50: 12.7 nM
